Consider 14 compounds from PMC6174881 (Journal of medicinal chemistry, 2018).

The target of assay [1] is T1, mMC1R (Mus musculus, UniProt Q01727). The settings on record: for mMC1R agonist activity in words: up to 100 μM.
In assay [2] the target is T1, mMC1R. The assay can be described thus: cell-based.
For assay [3], the target named is mMC5R (Mus musculus, UniProt P41149). Put plainly: AlphaScreen cAMP assay, agonist/inverse agonist activity at mMC5R. Particulars: for mMC5R inverse agonist efficacy (−X%): relative to basal, apparent sigmoidal dose-response; for mMC5R activity in words: up to 100 μM.
Sequence of mMC5R (P41149 whole entry): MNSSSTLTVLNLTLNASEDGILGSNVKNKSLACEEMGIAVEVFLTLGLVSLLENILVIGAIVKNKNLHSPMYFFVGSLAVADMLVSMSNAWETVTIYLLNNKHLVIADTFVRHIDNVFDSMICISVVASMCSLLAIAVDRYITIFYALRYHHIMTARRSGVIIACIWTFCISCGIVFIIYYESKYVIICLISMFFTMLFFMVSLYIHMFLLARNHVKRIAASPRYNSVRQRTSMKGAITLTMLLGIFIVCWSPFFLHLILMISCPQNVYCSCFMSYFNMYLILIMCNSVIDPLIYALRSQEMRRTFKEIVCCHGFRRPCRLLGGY
Assay [4] concerns the target mMC3R (Mus musculus, UniProt P33033). Particulars: for fold increase in potency at the mMC3R compared to 1: calculated using Ki values from Schild analysis.
The target of assay [5] is mMC4R (Mus musculus, UniProt P56450). The settings on record: for fold increase in potency at the mMC4R compared to 1: calculated using Ki values from Schild analysis; for selectivity for the mMC4R over the mMC3R: calculated using antagonist Ki values.
Sequence of mMC4R (P56450 whole entry): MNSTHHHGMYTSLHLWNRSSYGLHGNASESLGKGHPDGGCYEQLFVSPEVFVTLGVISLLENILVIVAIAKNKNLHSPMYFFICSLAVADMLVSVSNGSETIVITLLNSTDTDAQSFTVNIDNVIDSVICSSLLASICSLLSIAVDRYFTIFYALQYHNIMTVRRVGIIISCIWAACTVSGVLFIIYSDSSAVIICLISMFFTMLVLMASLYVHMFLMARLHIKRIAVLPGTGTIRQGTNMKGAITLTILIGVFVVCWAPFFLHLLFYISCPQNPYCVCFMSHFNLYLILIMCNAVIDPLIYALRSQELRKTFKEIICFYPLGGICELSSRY
[6] abbreviates: maximal stimulation relative to NDP-MSH, sigmoidal dose-response.
Where [7] appears, read: Schild analysis with agonist NDP-MSH, pA2 = −log[Ki].

Values joined by “and” are separate entries in the source; they are usually repeats but may differ in a detail not shown here. Equal values may be shown once. Read-outs that look alike come from different tables or passages of the source. Square brackets hold non-standard residues; d marks the D form. Peptide text beside a SMILES is read from it. hPhe = N[C@@H](CCc1ccccc1)C(=O)O; Nle = CCCC[C@H](N)C(=O)O; Dap = NC[C@H](N)C(=O)O

Sequence of mMC3R (P33033 whole entry): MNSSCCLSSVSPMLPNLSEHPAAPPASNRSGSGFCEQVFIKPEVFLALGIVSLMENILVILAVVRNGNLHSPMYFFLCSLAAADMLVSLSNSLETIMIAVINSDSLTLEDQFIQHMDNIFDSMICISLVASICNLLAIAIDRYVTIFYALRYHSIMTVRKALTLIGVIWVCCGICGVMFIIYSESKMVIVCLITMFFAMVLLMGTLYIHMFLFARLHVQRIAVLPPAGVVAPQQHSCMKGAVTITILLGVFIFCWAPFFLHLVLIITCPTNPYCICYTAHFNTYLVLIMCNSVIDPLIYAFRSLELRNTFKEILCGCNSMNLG
T1 sequence (Q01727 whole entry): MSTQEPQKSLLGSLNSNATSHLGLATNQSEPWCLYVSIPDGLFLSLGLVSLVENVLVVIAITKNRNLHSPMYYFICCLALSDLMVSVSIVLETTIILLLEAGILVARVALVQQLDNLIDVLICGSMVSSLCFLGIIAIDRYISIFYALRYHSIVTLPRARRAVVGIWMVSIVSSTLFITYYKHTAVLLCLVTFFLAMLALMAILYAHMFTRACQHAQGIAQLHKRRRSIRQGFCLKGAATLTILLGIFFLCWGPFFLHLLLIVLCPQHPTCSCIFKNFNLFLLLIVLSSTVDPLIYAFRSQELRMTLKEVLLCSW

For `CCCC[C@@H]1NC(=O)[C@H](C)NC(=O)[C@H](CC(N)=O)NC(=O)[C@H](Cc2ccccc2)NC(=O)[C@H](Cc2ccccc2)NC(=O)[C@H](CCCNC(=N)N)NC(=O)[C@@H]2CCCN2C(=O)[C@H]2CCCN2C1=O` [Compound 2, c[Pro-Arg-Phe-Phe-Asn-Ala-Nle-DPro]], in assay [1] (setting [6]), the “mMC1R partial agonist activity (X%), receptor stimulated to given percent” value was 50%. Also, a half-maximal response in assay [2] (EC50) required 1700 ± 300 nM. In assay [3], the half-maximal effective concentration (EC50) (usually the concentration needed to bring the measured effect to its halfway point) was 10 ± 6 nM, the “mMC5R inverse agonist efficacy (−X%)” value is listed as −20% and the “mMC5R activity in words” value is given as “inverse agonist activity was observed”. For the same compound, the Kb in assay [4] is 251 nM. In assay [5], the Kb was 1.26 nM and the “fold increase in potency at the mMC4R compared to 1” value is listed as ≤ 10 fold.

As for `N=C(N)NCCC[C@@H]1NC(=O)[C@@H]2CCCN2C(=O)[C@H]2CCCN2C(=O)[C@H](Cc2ccccc2)NC(=O)[C@H](CO)NC(=O)[C@H](CC(N)=O)NC(=O)[C@H](Cc2ccccc2)NC(=O)[C@H](Cc2ccccc2)NC1=O` [Compound 3, c[Pro-Arg-Phe-Phe-Asn-Ser-Phe-DPro]] (cyclo(RFFNSF[dP]P)), in assay [2], the half-maximal effective concentration (EC50) worked out at 1200 ± 300 nM. Further, in assay [3], the EC50 is 6 ± 3 nM, the “mMC5R inverse agonist efficacy (−X%)” value is recorded as −14% and the “mMC5R activity in words” value was “inverse agonist activity was observed”. Also, the Kb in assay [4] is 794 nM. In addition, in assay [5], the Kb was 7.94 nM and the “fold increase in potency at the mMC4R compared to 1” value is recorded as ≤ 10 fold.

In the case of `CCCC[C@@H]1NC(=O)[C@H](CO)NC(=O)[C@H](CC(N)=O)NC(=O)[C@H](Cc2ccccc2)NC(=O)[C@H](Cc2ccccc2)NC(=O)[C@H](CCCNC(=N)N)NC(=O)[C@@H]2CCCN2C(=O)[C@H]2CCCN2C1=O` [Compound 4, c[Pro-Arg-Phe-Phe-Asn-Ser-Nle-DPro]] (cyclo(RFFNS[Nle][dP]P)), the “mMC5R inverse agonist efficacy −X% @ 100 μM” value in assay [3] (at 100 μM relative to basal, no sigmoidal dose-response) was −35% @ 100μM. Moreover, in assay [3], the “mMC5R activity in words” value is “inverse agonist activity was observed”. Also, the “fold increase in potency at the mMC4R compared to 1” value in assay [5] is reported as ≤ 10 fold.

Take `C[C@@H]1NC(=O)[C@H](CN)NC(=O)[C@H](Cc2ccccc2)NC(=O)[C@H](Cc2ccccc2)NC(=O)[C@H](CCCNC(=N)N)NC(=O)[C@@H]2CCCN2C(=O)[C@H]2CCCN2C(=O)[C@H](Cc2ccccc2)NC1=O` [Compound 5, c[Pro-Arg-Phe-Phe-Dap-Ala-Phe-DPro]]: the “mMC1R partial agonist activity (X%), receptor stimulated to given percent” value in assay [1] (setting [6]) is on record as 80%. Besides, the figures for the half-maximal effective concentration (EC50) in assay [2] and in assay [3] were 1600 ± 400 nM and > 100000 nM, respectively. The Kb in assay [4] was 63.1 nM.

As for `CCCC[C@@H]1NC(=O)[C@H](CO)NC(=O)[C@H](CN)NC(=O)[C@H](Cc2ccccc2)NC(=O)[C@H](Cc2ccccc2)NC(=O)[C@H](CCCNC(=N)N)NC(=O)[C@@H]2CCCN2C(=O)[C@H]2CCCN2C1=O` [Compound 8, c[Pro-Arg-Phe-Phe-Dap-Ser-Nle-DPro]] (cyclo(RFF[Dap]S[Nle][dP]P)), the “fold increase in potency at the mMC4R compared to 1” value in assay [5] is ≥ 10 fold.

For `CCCC[C@@H]1NC(=O)[C@H](C)NC(=O)[C@H](CCCNC(=N)N)NC(=O)[C@H](Cc2ccccc2)NC(=O)[C@H](Cc2ccccc2)NC(=O)[C@H](CCCNC(=N)N)NC(=O)[C@@H]2CCCN2C(=O)[C@H]2CCCN2C1=O` [Compound 10, c[Pro-Arg-Phe-Phe-Arg-Ala-Nle-DPro]] (cyclo(RFFRA[Nle][dP]P)), the “fold increase in potency at the mMC3R compared to 1” value in assay [4] is “greater than 10 fold”. In addition, the “fold increase in potency at the mMC4R compared to 1” value in assay [5] was ≥ 10 fold.

For the compound `CCCC[C@@H]1NC(=O)[C@H](CO)NC(=O)[C@H](CCCNC(=N)N)NC(=O)[C@H](Cc2ccccc2)NC(=O)[C@H](Cc2ccccc2)NC(=O)[C@H](CCCNC(=N)N)NC(=O)[C@@H]2CCCN2C(=O)[C@H]2CCCN2C1=O` [Compound 12, c[Pro-Arg-Phe-Phe-Arg-Ser-Nle-DPro]] (cyclo(RFFRS[Nle][dP]P)), in assay [5], the “fold increase in potency at the mMC4R compared to 1” value is ≥ 10 fold.

For `CCCC[C@@H]1NC(=O)[C@H](C)NC(=O)[C@H](CC(N)=O)NC(=O)[C@H](CCc2ccccc2)NC(=O)[C@H](Cc2ccccc2)NC(=O)[C@H](CCCNC(=N)N)NC(=O)[C@@H]2CCCN2C(=O)[C@H]2CCCN2C1=O` [Compound 14, c[Pro-Arg-Phe-hPhe-Asn-Ala-Nle-DPro]], the “mMC1R agonist activity in words” value in assay [1] is “did not possess agonist activity”.

Consider `CCCC[C@@H]1NC(=O)[C@H](CO)NC(=O)[C@H](CC(N)=O)NC(=O)[C@H](CCc2ccccc2)NC(=O)[C@H](Cc2ccccc2)NC(=O)[C@H](CCCNC(=N)N)NC(=O)[C@@H]2CCCN2C(=O)[C@H]2CCCN2C1=O` [Compound 16, c[Pro-Arg-Phe-hPhe-Asn-Ser-Nle-DPro]] (cyclo(RF[hPhe]NS[Nle][dP]P)), for which the “mMC5R activity in words” value in assay [3] is reported as “did not result in mMC5R stimulation”. Also, the “Antagonist mMC3R pA2” value in assay [4] (setting [7]) was found to be 6.33. For the same compound, in assay [5], the “fold more potent than AGRP at the mMC4R” value is listed as 3–6 fold; the “selectivity for the mMC4R over the mMC3R” value was 600–800 fold and 800 fold. Further, the “Antagonist mMC4R pA2” value in assay [5] (setting [7]) was found to be 9.23.

`CCCC[C@@H]1NC(=O)[C@H](C)NC(=O)[C@H](CN)NC(=O)[C@H](CCc2ccccc2)NC(=O)[C@H](Cc2ccccc2)NC(=O)[C@H](CCCNC(=N)N)NC(=O)[C@@H]2CCCN2C(=O)[C@H]2CCCN2C1=O` [Compound 18, c[Pro-Arg-Phe-hPhe-Dap-Ala-Nle-DPro]] (cyclo(RF[hPhe][Dap]A[Nle][dP]P)): the “mMC1R agonist activity in words” value in assay [1] was “did not possess agonist activity”.

For the compound `CCCC[C@@H]1NC(=O)[C@H](CO)NC(=O)[C@H](CN)NC(=O)[C@H](CCc2ccccc2)NC(=O)[C@H](Cc2ccccc2)NC(=O)[C@H](CCCNC(=N)N)NC(=O)[C@@H]2CCCN2C(=O)[C@H]2CCCN2C1=O` [Compound 20, c[Pro-Arg-Phe-hPhe-Dap-Ser-Nle-DPro]] (cyclo(RF[hPhe][Dap]S[Nle][dP]P)), the “mMC5R activity in words” value in assay [3] is given as “did not result in mMC5R stimulation”. Further, in assay [5], the “fold more potent than AGRP at the mMC4R” value was 3–6 fold; the “fold increase in potency at the mMC4R compared to 1” value was 25 fold; the “selectivity for the mMC4R over the mMC3R” value is 600–800 fold and 600 fold.

On to `CCCC[C@@H]1NC(=O)[C@H](C)NC(=O)[C@H](CCCNC(=N)N)NC(=O)[C@H](CCc2ccccc2)NC(=O)[C@H](Cc2ccccc2)NC(=O)[C@H](CCCNC(=N)N)NC(=O)[C@@H]2CCCN2C(=O)[C@H]2CCCN2C1=O` [Compound 22, c[Pro-Arg-Phe-hPhe-Arg-Ala-Nle-DPro]] (cyclo(RF[hPhe]RA[Nle][dP]P)), for which the “mMC1R agonist activity in words” value in assay [1] is recorded as “did not possess agonist activity”. For the same compound, the “fold increase in potency at the mMC3R compared to 1” value in assay [4] was “greater than 10 fold”.

Consider `N=C(N)NCCC[C@@H]1NC(=O)[C@H](CCc2ccccc2)NC(=O)[C@H](Cc2ccccc2)NC(=O)[C@H](CCCNC(=N)N)NC(=O)[C@@H]2CCCN2C(=O)[C@H]2CCCN2C(=O)[C@H](Cc2ccccc2)NC(=O)[C@H](CO)NC1=O` [Compound 23, c[Pro-Arg-Phe-hPhe-Arg-Ser-Phe-DPro]] (cyclo(RF[hPhe]RSF[dP]P)), for which, in assay [4], the “fold increase in potency at the mMC3R compared to 1” value is “greater than 10 fold”.

Take `CCCC[C@@H]1NC(=O)[C@H](CO)NC(=O)[C@H](CCCNC(=N)N)NC(=O)[C@H](CCc2ccccc2)NC(=O)[C@H](Cc2ccccc2)NC(=O)[C@H](CCCNC(=N)N)NC(=O)[C@@H]2CCCN2C(=O)[C@H]2CCCN2C1=O` [Compound 24, c[Pro-Arg-Phe-hPhe-Arg-Ser-Nle-DPro]] (cyclo(RF[hPhe]RS[Nle][dP]P)): in assay [1], the “mMC1R partial agonist activity (X%), receptor stimulated to given percent” value turned out to be 25%. Besides, the “fold increase in potency at the mMC3R compared to 1” value in assay [4] is “greater than 10 fold”.
